In article PMC8222254, “Self-assembly of an anion receptor with metal-dependent kinase inhibition and potent in vitro anti-cancer properties” (Nature Communications, 2021):
Values joined by “and” are separate entries in the source; they are usually repeats but may differ in a detail not shown here. Equal values may be shown once.

What was measured:
Experiment in all cases: Kinase inhibition screen, cell-free 33P ATP assay at 10 μM
Format in all cases: biochemical
[1] = molecular target: 140 purified human kinases (Homo sapiens, UniProt O95747); settings: for % Activity Run 1 / % Activity Run 2: 10 µM
Procedure, shortened: (§1)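 Radiometric ^33P ATP cell-free format with purified enzymes; both complexes run at 10 μM in duplicate, results plotted on a kinome map via HGNC symbols.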

[2] = molecular target: 140 purified human kinases (Homo sapiens, UniProt P17612); settings: PKA
Procedure, shortened: as §1

[3] = molecular target: 140 purified human kinases (Homo sapiens, UniProt P31749); settings: PKBa
Procedure, shortened: as §1

[4] = molecular target: 140 purified human kinases (Homo sapiens, UniProt P41240); settings: CSK
Procedure, shortened: as §1

[5] = molecular target: 140 purified human kinases (Homo sapiens, UniProt P49841); settings: GSK3b
Procedure, shortened: as §1

[6] = molecular target: T1, 140 purified human kinases (Homo sapiens, UniProt P51955); settings: NEK2a
T1 sequence (P51955 1-445): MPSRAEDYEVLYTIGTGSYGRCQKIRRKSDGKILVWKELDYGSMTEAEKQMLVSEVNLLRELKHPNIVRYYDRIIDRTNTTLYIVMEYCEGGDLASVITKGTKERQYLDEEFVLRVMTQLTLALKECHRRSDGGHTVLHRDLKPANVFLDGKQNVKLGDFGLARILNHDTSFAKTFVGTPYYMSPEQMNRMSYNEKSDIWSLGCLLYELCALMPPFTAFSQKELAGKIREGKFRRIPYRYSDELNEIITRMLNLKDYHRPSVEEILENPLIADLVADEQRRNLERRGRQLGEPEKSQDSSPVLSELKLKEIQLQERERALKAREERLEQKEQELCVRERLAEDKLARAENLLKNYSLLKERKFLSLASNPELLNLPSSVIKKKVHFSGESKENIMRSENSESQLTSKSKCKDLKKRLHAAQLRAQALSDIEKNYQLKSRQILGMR
Procedure, shortened: as §1

[7] = molecular target: 140 purified human kinases (Homo sapiens, UniProt P68400)
Procedure, shortened: as §1

[8] = molecular target: 140 purified human kinases (Homo sapiens, UniProt Q15569)
Procedure, shortened: as §1

[9] = molecular target: 140 purified human kinases (Homo sapiens, UniProt Q86V86)
Procedure, shortened: as §1

[10] = molecular target: 140 purified human kinases (Homo sapiens, UniProt Q9NQU5)
Procedure, shortened: as §1

Sequence of 140 purified human kinases (Homo sapiens, UniProt P68400) (P68400 whole entry): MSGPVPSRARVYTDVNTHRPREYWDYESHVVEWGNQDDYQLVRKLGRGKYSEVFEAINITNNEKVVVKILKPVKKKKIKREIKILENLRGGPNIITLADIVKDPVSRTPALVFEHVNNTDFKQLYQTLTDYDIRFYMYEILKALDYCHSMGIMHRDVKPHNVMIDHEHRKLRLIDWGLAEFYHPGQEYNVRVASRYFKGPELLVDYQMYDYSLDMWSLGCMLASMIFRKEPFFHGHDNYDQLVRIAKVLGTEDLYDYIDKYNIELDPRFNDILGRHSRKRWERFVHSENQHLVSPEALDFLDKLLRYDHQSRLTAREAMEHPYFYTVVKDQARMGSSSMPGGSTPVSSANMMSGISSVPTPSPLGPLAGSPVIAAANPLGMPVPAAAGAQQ
Sequence of 140 purified human kinases (Homo sapiens, UniProt P41240) (P41240 whole entry): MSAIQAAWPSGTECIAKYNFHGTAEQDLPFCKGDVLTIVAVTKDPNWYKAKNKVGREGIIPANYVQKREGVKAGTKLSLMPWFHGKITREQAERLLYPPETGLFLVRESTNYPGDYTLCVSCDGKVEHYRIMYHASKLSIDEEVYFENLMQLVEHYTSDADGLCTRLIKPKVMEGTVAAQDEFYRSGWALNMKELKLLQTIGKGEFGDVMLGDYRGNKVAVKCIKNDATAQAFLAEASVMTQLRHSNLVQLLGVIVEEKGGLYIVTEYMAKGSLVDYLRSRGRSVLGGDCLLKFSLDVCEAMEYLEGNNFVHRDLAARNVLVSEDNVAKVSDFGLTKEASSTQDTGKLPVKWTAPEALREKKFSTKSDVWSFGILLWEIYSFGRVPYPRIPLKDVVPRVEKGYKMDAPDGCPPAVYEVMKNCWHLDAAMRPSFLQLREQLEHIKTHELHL
Sequence of 140 purified human kinases (Homo sapiens, UniProt P49841) (P49841 whole entry): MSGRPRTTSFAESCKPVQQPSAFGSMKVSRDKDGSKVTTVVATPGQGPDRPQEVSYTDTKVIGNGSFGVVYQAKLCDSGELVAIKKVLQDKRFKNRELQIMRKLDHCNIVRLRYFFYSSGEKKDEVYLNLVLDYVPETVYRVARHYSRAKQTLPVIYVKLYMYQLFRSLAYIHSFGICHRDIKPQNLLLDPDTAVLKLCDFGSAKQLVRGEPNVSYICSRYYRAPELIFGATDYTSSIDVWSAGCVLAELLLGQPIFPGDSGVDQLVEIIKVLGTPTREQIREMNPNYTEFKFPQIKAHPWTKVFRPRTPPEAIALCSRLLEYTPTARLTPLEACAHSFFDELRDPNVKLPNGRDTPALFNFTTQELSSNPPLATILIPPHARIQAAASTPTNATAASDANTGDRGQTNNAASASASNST
Sequence of 140 purified human kinases (Homo sapiens, UniProt O95747) (O95747 whole entry): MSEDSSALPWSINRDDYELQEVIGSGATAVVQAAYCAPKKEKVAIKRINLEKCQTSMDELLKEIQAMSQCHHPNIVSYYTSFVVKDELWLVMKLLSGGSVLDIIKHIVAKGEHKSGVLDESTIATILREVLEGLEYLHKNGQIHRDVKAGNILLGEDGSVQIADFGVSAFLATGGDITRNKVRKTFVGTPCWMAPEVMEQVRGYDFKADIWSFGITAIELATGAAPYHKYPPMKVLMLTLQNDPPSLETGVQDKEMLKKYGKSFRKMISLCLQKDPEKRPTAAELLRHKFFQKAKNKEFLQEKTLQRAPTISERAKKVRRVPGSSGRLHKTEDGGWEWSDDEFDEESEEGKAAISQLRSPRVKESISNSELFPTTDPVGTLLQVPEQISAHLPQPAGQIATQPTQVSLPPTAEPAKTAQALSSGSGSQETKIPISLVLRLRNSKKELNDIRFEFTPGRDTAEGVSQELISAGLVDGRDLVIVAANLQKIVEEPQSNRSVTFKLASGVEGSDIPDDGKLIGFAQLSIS
Sequence of 140 purified human kinases (Homo sapiens, UniProt Q9NQU5) (Q9NQU5 whole entry): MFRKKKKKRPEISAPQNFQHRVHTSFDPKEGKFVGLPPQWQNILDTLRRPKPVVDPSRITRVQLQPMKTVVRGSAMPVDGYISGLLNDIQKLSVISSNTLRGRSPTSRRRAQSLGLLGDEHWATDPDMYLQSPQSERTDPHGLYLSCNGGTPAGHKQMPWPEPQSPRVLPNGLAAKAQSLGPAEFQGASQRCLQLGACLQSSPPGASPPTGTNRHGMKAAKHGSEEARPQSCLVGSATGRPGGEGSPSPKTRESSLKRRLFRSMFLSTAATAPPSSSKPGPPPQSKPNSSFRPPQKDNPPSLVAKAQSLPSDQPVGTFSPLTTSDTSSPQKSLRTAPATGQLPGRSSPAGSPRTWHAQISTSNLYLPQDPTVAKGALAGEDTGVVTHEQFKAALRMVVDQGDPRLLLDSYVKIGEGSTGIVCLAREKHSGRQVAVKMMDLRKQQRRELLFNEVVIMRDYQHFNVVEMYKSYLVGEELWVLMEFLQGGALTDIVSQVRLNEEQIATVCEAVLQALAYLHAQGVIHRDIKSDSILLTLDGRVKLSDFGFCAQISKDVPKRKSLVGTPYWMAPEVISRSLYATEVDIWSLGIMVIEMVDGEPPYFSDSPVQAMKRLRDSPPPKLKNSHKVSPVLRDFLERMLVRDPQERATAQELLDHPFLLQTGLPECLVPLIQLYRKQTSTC
Sequence of 140 purified human kinases (Homo sapiens, UniProt P31749) (P31749 whole entry): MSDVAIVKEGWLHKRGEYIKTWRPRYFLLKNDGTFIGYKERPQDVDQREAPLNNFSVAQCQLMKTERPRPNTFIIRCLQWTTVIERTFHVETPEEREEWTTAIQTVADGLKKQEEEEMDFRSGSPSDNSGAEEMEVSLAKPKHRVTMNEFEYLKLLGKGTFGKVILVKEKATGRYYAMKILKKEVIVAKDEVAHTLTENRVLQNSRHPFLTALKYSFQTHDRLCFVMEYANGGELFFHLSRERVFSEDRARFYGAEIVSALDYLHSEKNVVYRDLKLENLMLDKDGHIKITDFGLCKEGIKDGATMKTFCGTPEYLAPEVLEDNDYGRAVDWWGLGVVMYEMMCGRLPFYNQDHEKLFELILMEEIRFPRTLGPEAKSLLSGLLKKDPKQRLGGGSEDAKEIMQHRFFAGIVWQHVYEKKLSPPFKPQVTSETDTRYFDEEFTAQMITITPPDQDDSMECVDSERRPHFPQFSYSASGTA
Sequence of 140 purified human kinases (Homo sapiens, UniProt Q15569) (Q15569 whole entry): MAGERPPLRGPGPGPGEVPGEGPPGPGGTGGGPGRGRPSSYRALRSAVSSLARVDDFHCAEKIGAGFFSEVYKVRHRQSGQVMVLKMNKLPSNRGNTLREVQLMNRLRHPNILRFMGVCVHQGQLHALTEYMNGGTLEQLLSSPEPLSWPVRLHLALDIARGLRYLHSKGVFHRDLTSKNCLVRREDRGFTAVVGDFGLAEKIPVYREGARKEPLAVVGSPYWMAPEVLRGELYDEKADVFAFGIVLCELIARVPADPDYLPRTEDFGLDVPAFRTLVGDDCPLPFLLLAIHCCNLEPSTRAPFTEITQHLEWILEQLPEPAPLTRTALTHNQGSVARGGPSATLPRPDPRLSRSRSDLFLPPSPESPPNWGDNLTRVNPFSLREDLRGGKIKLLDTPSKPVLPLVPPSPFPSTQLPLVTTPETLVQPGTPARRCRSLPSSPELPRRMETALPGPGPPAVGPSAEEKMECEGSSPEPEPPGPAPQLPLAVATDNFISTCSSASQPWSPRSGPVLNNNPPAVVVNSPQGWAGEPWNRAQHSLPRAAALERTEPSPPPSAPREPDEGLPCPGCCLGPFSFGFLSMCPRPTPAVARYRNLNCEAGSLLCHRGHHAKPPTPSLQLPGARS

SMILES: [Cu+2].[Cu+2].[Cu+2].c1ccc(-c2csc(NCCN(CCNc3nc(-c4ccccn4)cs3)CCNc3nc(-c4ccccn4)cs3)n2)nc1.c1ccc(-c2csc(NCCN(CCNc3nc(-c4ccccn4)cs3)CCNc3nc(-c4ccccn4)cs3)n2)nc1 [[L2Cu3]6+]
- % Activation, Mean value ([1]; OSR1): 48%
- % Inhibition Run 1 ([1]; OSR1): -39.6%
- % Inhibition Run 2 ([1]; OSR1): -55.9%
- % Inhibition, Mean ([1]; OSR1): -48%
- mean % activity ([1]; OSR1): 148%
- % activity ([1]; OSR1, Run 1): 139.6%
- % activity ([1]; OSR1, Run 2): 155.9%
- % Activity Run 1 ([1]; OSR1): 139.60%
- % Activity Run 2 ([1]; OSR1): 155.90%
- % Inhibition Run 1 [2]: 46.4%
- % Inhibition Run 2 [2]: 48.2%
- % Inhibition, Mean [2]: 47%
- mean % activity [2]: 53%
- % activity ([2]; Run 1): 53.6%
- % activity ([2]; Run 2): 51.8%
- % Inhibition Run 1 [3]: 72.1%
- % Inhibition Run 2 [3]: 76%
- % Inhibition, Mean [3]: 74%
- mean % activity [3]: 26%
- % activity ([3]; Run 1): 27.9%
- % activity ([3]; Run 2): 24%
- % Inhibition Run 1 [4]: 11.5%
- % Inhibition Run 2 [4]: 10.8%
- % Inhibition, Mean [4]: 11%
- mean % activity [4]: 89%
- % activity ([4]; Run 1): 88.5%
- % activity ([4]; Run 2): 89.2%
- % Inhibition Run 1 [5]: 28.4%
- % Inhibition Run 2 [5]: 32.5%
- % Inhibition, Mean [5]: 30%
- mean % activity [5]: 70%
- % activity ([5]; Run 1): 71.6%
- % activity ([5]; Run 2): 67.5%
- % Inhibition Run 1 [6]: 94.1%
- % Inhibition Run 2 [6]: 94%
- % Inhibition, Mean [6]: 94%
- mean % activity [6]: 6%
- % activity ([6]; Run 1): 5.9%
- % activity ([6]; Run 2): 6%
- % Activity inhibition Mean ([6]; 10 µM): 94.1%
- % Activity inhibition Run 1 ([6]; 10 µM): 94.1%
- % Activity inhibition Run 2 ([6]; 10 µM): 94%
- % Activity remaining Run 1 ([6]; 10 µM): 5.90%
- % Activity remaining Run 2 ([6]; 10 µM): 6.00%
- % Inhibition Run 1 ([7]; CK2): -0.5%
- % Inhibition Run 2 ([7]; CK2): 5.6%
- % Inhibition, Mean ([7]; CK2): 2.55%
- mean % activity ([7]; CK2): 97%
- % activity ([7]; CK2, Run 1): 100.5%
- % activity ([7]; CK2, Run 2): 94.4%
- % Inhibition Run 1 ([8]; TESK1): 16.1%
- % Inhibition Run 2 ([8]; TESK1): -16.2%
- % Inhibition, Mean ([8]; TESK1): -0.05%
- mean % activity ([8]; TESK1): 100%
- % activity ([8]; TESK1, Run 1): 83.9%
- % activity ([8]; TESK1, Run 2): 116.2%
- % Inhibition Run 1 ([9]; PIM3): 54.7%
- % Inhibition Run 2 ([9]; PIM3): 54.9%
- % Inhibition, Mean ([9]; PIM3): 55%
- mean % activity ([9]; PIM3): 45%
- % activity ([9]; PIM3, Run 1): 45.3%
- % activity ([9]; PIM3, Run 2): 45.1%
- % Inhibition Run 1 ([10]; PAK6): 49.1%
- % Inhibition Run 2 ([10]; PAK6): 47.9%
- % Inhibition, Mean ([10]; PAK6): 49%
- mean % activity ([10]; PAK6): 52%
- % activity ([10]; PAK6, Run 1): 50.9%
- % activity ([10]; PAK6, Run 2): 52.1%

SMILES: CC(=O)[O-].CC(=O)[O-].CC(=O)[O-].CC(=O)[O-].CC(=O)[O-].CC(=O)[O-].[Zn+2].[Zn+2].[Zn+2].c1ccc(-c2csc(NCCN(CCNc3nc(-c4ccccn4)cs3)CCNc3nc(-c4ccccn4)cs3)n2)nc1.c1ccc(-c2csc(NCCN(CCNc3nc(-c4ccccn4)cs3)CCNc3nc(-c4ccccn4)cs3)n2)nc1 [[L2Zn3]6+]
- % Activation, Mean value ([1]; OSR1): 38%
- % Inhibition, Mean ([1]; OSR1): -38%
- % Inhibition, Run 1 / Run 2 ([1]; OSR1): -37% and -40%
- mean % activity ([1]; OSR1): 138%
- % Activity Run 1 ([1]; OSR1): 137.0%
- % Activity Run 2 ([1]; OSR1): 140.0%
- % activity ([1]; OSR1, duplicate runs): 137% and 140%
- % Activation, Mean value [2]: 7%
- % Inhibition, Mean [2]: -7%
- mean % activity [2]: 107%
- % activity ([2]; duplicate runs): 101% and 114%
- % Inhibition, Mean [3]: 17%
- mean % activity [3]: 83%
- % activity ([3]; duplicate runs): 68% and 99%
- % Inhibition, Mean [4]: 8%
- mean % activity [4]: 92%
- % activity ([4]; duplicate runs): 82% and 102%
- % Inhibition, Mean [5]: 16%
- % Inhibition, Run 1 / Run 2 [5]: 20% and 11%
- mean % activity [5]: 84%
- % activity ([5]; duplicate runs): 80% and 89%
- % Inhibition, Mean [6]: 30%
- mean % activity [6]: 70%
- % activity ([6]; duplicate runs): 58% and 82%
- % Inhibition, Mean ([7]; CK2): 13%
- % Inhibition, Run 1 / Run 2 ([7]; CK2): 15% and 12%
- mean % activity ([7]; CK2): 87%
- % activity ([7]; CK2, duplicate runs): 85% and 88%
- % Inhibition, Mean ([8]; TESK1): 25%
- % Inhibition, Run 1 / Run 2 ([8]; TESK1): 34% and 17%
- mean % activity ([8]; TESK1): 75%
- % activity ([8]; TESK1, duplicate runs): 66% and 83%
- % Inhibition, Mean ([9]; PIM3): 36%
- % Inhibition, Run 1 / Run 2 ([9]; PIM3): 38% and 35%
- mean % activity ([9]; PIM3): 64%
- % activity ([9]; PIM3, duplicate runs): 62% and 65%
- % Inhibition, Mean ([10]; PAK6): 27%
- mean % activity ([10]; PAK6): 73%
- % activity ([10]; PAK6, duplicate runs): 63% and 83%
